The record followed here is US8143393B2, “Substituted 4-amino-pyrrolotriazine derivatives useful for treating hyper-proliferative disorders and diseases associated with angiogenesis” (Bayer HealthCare LLC, priority 2005, dated 2012).

As a reminder, the IC50 is the midpoint of a concentration-inhibition curve. In general, pIC50 refers to the IC50 on a negative log10 scale, so that one unit is a factor of ten.

pIC50: −log10 of the molar value.

In the first assay the target is T1, FGFR-1 (Homo sapiens, UniProt P11362).
T1 construct: GST; made in house
T1 sequence (P11362 22-822): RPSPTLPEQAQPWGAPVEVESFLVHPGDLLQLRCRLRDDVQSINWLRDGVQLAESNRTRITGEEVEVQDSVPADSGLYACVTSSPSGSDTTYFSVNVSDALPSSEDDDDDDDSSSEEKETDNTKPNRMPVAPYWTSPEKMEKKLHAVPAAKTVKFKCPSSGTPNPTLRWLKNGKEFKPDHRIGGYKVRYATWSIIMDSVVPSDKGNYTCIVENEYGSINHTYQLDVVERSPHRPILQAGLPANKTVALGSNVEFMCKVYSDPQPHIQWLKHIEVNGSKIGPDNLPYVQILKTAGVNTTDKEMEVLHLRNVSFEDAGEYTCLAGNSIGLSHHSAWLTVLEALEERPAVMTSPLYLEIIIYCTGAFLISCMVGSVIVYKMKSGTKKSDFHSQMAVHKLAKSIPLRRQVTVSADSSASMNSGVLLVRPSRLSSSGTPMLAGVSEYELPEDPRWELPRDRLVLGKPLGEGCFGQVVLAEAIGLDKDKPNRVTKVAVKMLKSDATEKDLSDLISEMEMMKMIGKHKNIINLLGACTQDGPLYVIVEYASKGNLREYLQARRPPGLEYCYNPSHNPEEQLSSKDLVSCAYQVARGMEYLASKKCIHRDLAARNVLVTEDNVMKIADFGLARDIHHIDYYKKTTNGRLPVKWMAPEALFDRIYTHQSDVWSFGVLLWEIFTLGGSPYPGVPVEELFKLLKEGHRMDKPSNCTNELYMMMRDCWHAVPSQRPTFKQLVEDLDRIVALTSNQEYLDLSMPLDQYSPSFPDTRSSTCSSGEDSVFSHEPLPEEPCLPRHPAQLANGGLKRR
Description: FGFR-1 TR-FRET biochemical assay. The settings on record: 0.6 uM ATP, 5 nM FGFR1-GST; bounds given in nM. In outline: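 In this LANCE time-resolved FRET format, compounds at final 10 μM–0.128 nM (1% DMSO, 1:5 series) were preincubated before enzyme start. Reactions ran for one hour at room temperature with 0.6 uM ATP, 25 nM biotinylated poly GT and 5 nM GST-tagged FGFR1. Inhibition was calculated from the 665/615 nm ratio minus the ATP-free background.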
For the compound `CN1CCN(CCCc2cc(-c3ccc(NC(=O)Nc4cc(C(F)(F)F)ccc4F)c(F)c3)c3c(N)ncnn23)CC1` [Example 187, N-(4-{4-amino-7-[3-(4-methylpiperazin-1-yl)propyl]pyrrolo[2,1-f][1,2,4]triazin-5-yl}-2-fluorophenyl)-N′-[2-fluoro-5-(trifluoromethyl)phenyl]urea], the IC50 is under 10 nM.
Still for that read-out and setting: under `CC(=O)N1CCN(CCCc2cc(-c3ccc(NC(=O)Nc4cc(C(F)(F)F)ccc4F)c(F)c3)c3c(N)ncnn23)CC1` [Example 188, N-(4-{7-[3-(4-acetylpiperazin-1-yl)propyl]-4-aminopyrrolo[2,1-f][1,2,4]triazin-5-yl}-2-fluorophenyl)-N′-[2-fluoro-5-(trifluoromethyl)phenyl]urea] stands under 10 nM.
On the same count and under the same terms, under `Nc1ncnn2c(CCCN3CCS(=O)(=O)CC3)cc(-c3ccc(NC(=O)Nc4cc(C(F)(F)F)ccc4F)c(F)c3)c12` [Example 189, N-(4-{4-amino-7-[3-(1,1-dioxidothiomorpholin-4-yl)propyl]pyrrolo[2,1-f][1,2,4]triazin-5-yl}-2-fluorophenyl)-N′-[2-fluoro-5-(trifluoromethyl)phenyl]urea] stands under 10 nM; under `Nc1ncnn2c(CCCN3CCOCC3)cc(-c3cc(F)c(NC(=O)Nc4cc(C(F)(F)F)ccc4F)cc3F)c12` [Example 190, N-{4-[4-amino-7-(3-morpholin-4-ylpropyl)pyrrolo[2,1-f][1,2,4]triazin-5-yl]-2,5-difluorophenyl}-N′-[2-fluoro-5-(trifluoromethyl)phenyl]urea], under 10 nM.
The compound `Nc1ncnn2c(CCCN3CCOCC3)cc(-c3ccc(NC(=O)Nc4cc(C(F)(F)F)ccn4)c(F)c3)c12` [Example 191, N-{4-[4-amino-7-(3-morpholin-4-ylpropyl)pyrrolo[2,1-f][1,2,4]triazin-5-yl]-2-fluorophenyl}-N′-[4-(trifluoromethyl)pyridin-2-yl]urea] gave an IC50 of under 10 nM.
`Nc1ncnn2c(CCCN3CCCOCC3)cc(-c3ccc(NC(=O)Nc4cc(C(F)(F)F)ccc4F)c(F)c3)c12` [Example 193, N-(4-{4-amino-7-[3-(1,4-oxazepan-4-yl)propyl]pyrrolo[2,1-f][1,2,4]triazin-5-yl}-2-fluorophenyl)-N′-[2-fluoro-5-(trifluoromethyl)phenyl]urea]: the IC50 was under 10 nM.
Same read-out and setting: under `CN(C)CCCc1cc(-c2ccc(NC(=O)Nc3cc(C(F)(F)F)ccc3F)c(F)c2)c2c(N)ncnn12` [Example 194, N-(4-{4-amino-7-[3-(dimethylamino)propyl]pyrrolo[2,1-f][1,2,4]triazin-5-yl}-2-fluorophenyl)-N′-[2-fluoro-5-(trifluoromethyl)phenyl]urea] stands under 10 nM; under `Nc1ncnn2c(CCCN3CCNC(=O)C3)cc(-c3ccc(NC(=O)Nc4cc(C(F)(F)F)ccc4F)c(F)c3)c12` [Example 195, N-(4-{4-amino-7-[3-(3-oxopiperazin-1-yl)propyl]pyrrolo[2,1-f][1,2,4]triazin-5-yl}-2-fluorophenyl)-N′-[2-fluoro-5-(trifluoromethyl)phenyl]urea], under 10 nM.
On the same count and under the same terms, under `Nc1ncnn2c(CCCN3CCSCC3)cc(-c3ccc(NC(=O)Nc4cc(C(F)(F)F)ccc4F)c(F)c3)c12` [Example 196, N-{4-4-[4-amino-7-(3-thiomorpholin-4-ylpropyl)pyrrolo[2,1-f][1,2,4]triazin-5-yl]-2-fluorophenyl}-N′-[2-fluoro-5-(trifluoromethyl)phenyl]urea] stands 10 to 100 nM; under `CC(C)(C)OC(=O)N1CCC(c2cc(-c3ccc(NC(=O)Nc4cc(C(F)(F)F)ccc4F)c(F)c3)c3c(N)ncnn23)C1` (centres unmarked) [Example 198, tert-butyl 3-{4-amino-5-[3-fluoro-4-({[2-fluoro-5-(trifluoromethyl)phenyl]carbamoyl}amino)phenyl]pyrrolo[2,1-f][1,2,4]triazin-7-yl}pyrrolidine-1-carboxylate], over 100 nM.
Take `Nc1ncnn2c(C3CCNC3)cc(-c3ccc(NC(=O)Nc4cc(C(F)(F)F)ccc4F)c(F)c3)c12` (centres unmarked) [Example 200, N-[4-(4-amino-7-pyrrolidin-3-ylpyrrolo[2,1-f][1,2,4]triazin-5-yl)-2-fluorophenyl]-N′-[2-fluoro-5-(trifluoromethyl)phenyl]urea]: the IC50 was 10 to 100 nM.
The same measure, in the same setting: under `CS(=O)(=O)N1CCC(c2cc(-c3ccc(NC(=O)Nc4cc(C(F)(F)F)ccc4F)c(F)c3)c3c(N)ncnn23)C1` (centres unmarked) [Example 201, N-(4-{4-amino-7-[1-(methylsulfonyl)pyrrolidin-3-yl]pyrrolo[2,1-f][1,2,4]triazin-5-yl}-2-fluorophenyl)-N′-[2-fluoro-5-(trifluoromethyl)phenyl]urea] stands under 10 nM; under `CC(=O)N1CCC(c2cc(-c3ccc(NC(=O)Nc4cc(C(F)(F)F)ccc4F)c(F)c3)c3c(N)ncnn23)C1` (centres unmarked) [Example 202, N-{4-[7-(1-acetylpyrrolidin-3-yl)-4-aminopyrrolo[2,1-f][1,2,4]triazin-5-yl]-2-fluorophenyl}-N′-[2-fluoro-5-(trifluoromethyl)phenyl]urea], under 10 nM; under `CN(C)C(=O)N1CCC(c2cc(-c3ccc(NC(=O)Nc4cc(C(F)(F)F)ccc4F)c(F)c3)c3c(N)ncnn23)C1` (centres unmarked) [Example 203, 3-{4-amino-5-[3-fluoro-4-({[2-fluoro-5-(trifluoromethyl)phenyl]carbamoyl}amino)phenyl]pyrrolo[2,1-f][1,2,4]triazin-7-yl}-N,N-dimethylpyrrolidine-1-carboxamide], under 10 nM.
`Nc1ncnn2c(C3CCN(C(=O)CO)C3)cc(-c3ccc(NC(=O)Nc4cc(C(F)(F)F)ccc4F)c(F)c3)c12` (centres unmarked) [Example 204, N-{4-[4-amino-7-(1-glycoloylpyrrolidin-3-yl)pyrrolo[2,1-f][1,2,4]triazin-5-yl]-2-fluorophenyl}-N′-[2-fluoro-5-(trifluoromethyl)phenyl]urea] came in with an IC50 of under 10 nM.
On the same count and under the same terms, under `CC(=O)N1CCC(c2cc(-c3ccc(NC(=O)Nc4cc(C(F)(F)F)ccn4)c(F)c3)c3c(N)ncnn23)C1` (centres unmarked) [Example 205, N-{4-[7-(1-acetylpyrrolidin-3-yl)-4-aminopyrrolo[2,1-f][1,2,4]triazin-5-yl]-2-fluorophenyl}-N′-[4-(trifluoromethyl)pyridin-2-yl]urea] stands under 10 nM; under `Nc1ncnn2c(C3CCNC3)cc(-c3ccc(NC(=O)Nc4cc(C(F)(F)F)ccc4F)cc3)c12` (centres unmarked) [Example 206, 1-[4-(4-amino-7-pyrrolidin-3-ylpyrrolo[2,1-f][1,2,4]triazin-5-yl)phenyl]-3-[2-fluoro-5-(trifluoromethyl)phenyl]urea], under 10 nM; under `CC(C)(C)OC(=O)N1CCC(c2cc(-c3ccc(NC(=O)Nc4cc(C(F)(F)F)ccn4)c(F)c3)c3c(N)ncnn23)C1` (centres unmarked) [Example 208, tert-butyl 3-{4-amino-5-[3-fluoro-4-({[4-(trifluoromethyl)pyridin-2-yl]carbamoyl}amino)phenyl]pyrrolo[2,1-f][1,2,4]triazin-7-yl}pyrrolidine-1-carboxylate], 10 to 100 nM.
On the same count and under the same terms, in the case of `CNC(=O)N1CCC(c2cc(-c3ccc(NC(=O)Nc4cc(C(F)(F)F)ccc4F)c(F)c3)c3c(N)ncnn23)CC1` [Example 209, 4-{4-amino-5-[3-fluoro-4-({[2-fluoro-5-(trifluoromethyl)phenyl]carbamoyl}amino)phenyl]pyrrolo[2,1-f][1,2,4]triazin-7-yl}-N-methylpiperidine-1-carboxamide] it was 10 to 100 nM; in that of `Nc1ncnn2c(CCN3CCOCC3)cc(-c3cc(F)c(NC(=O)Nc4cc(C(F)(F)F)ccc4F)cc3F)c12` [Example 211, N-{4-[4-amino-7-(2-morpholin-4-ylethyl)pyrrolo[2,1-f][1,2,4]triazin-5-yl]-2,5-difluorophenyl}-N′-[2-fluoro-5-(trifluoromethyl)phenyl]urea], 10 to 100 nM; in that of `Nc1ncnn2c(CCN3CCOCC3)cc(-c3ccc(NC(=O)Nc4cc(C(F)(F)F)ccc4F)c(F)c3)c12` [Example 212, N-{4-[4-amino-7-(2-morpholin-4-ylethyl)pyrrolo[2,1-f][1,2,4]triazin-5-yl]-2-fluorophenyl}-N′-[2-fluoro-5-(trifluoromethyl)phenyl]urea], 10 to 100 nM.
With `CN1CCN(CCc2cc(-c3ccc(NC(=O)Nc4cc(C(F)(F)F)ccc4F)c(F)c3)c3c(N)ncnn23)CC1` [Example 214, N-(4-{4-amino-7-[2-(4-methylpiperazin-1-yl)ethyl]pyrrolo[2,1-f][1,2,4]triazin-5-yl}-2-fluorophenyl)-N′-[2-fluoro-5-(trifluoromethyl)phenyl]urea], the IC50 was under 10 nM.
On to `COC[C@@H]1CCCN1CCc1cc(-c2ccc(NC(=O)Nc3cc(C(F)(F)F)ccc3F)c(F)c2)c2c(N)ncnn12` [Example 215, N-[4-(4-amino-7-{2-[2-(methoxymethyl)pyrrolidin-1-yl]ethyl}pyrrolo-[2,1-f][1,2,4]triazin-5-yl)-2-fluorophenyl]-N′-[2-fluoro-5-(trifluoromethyl)phenyl]urea], for which the IC50 was in the range of 10 to 100 nM.
On the same count and under the same terms, in the case of `Nc1ncnn2c(CCN3CCCC3)cc(-c3ccc(NC(=O)Nc4cc(C(F)(F)F)ccc4F)c(F)c3)c12` [Example 216, N-{4-[4-amino-7-(2-pyrrolidin-1-ylethyl)pyrrolo[2,1-f][1,2,4]triazin-5-yl]-2-fluorophenyl}-N′-[2-fluoro-5-(trifluoromethyl)phenyl]urea] it was 10 to 100 nM.
Same read-out and setting: in the case of `Nc1ncnn2c(CCCN3CCOCC3)cc(-c3ccc(NC(=O)Nc4cc(C(F)(F)F)ccc4Cl)c(F)c3)c12` [Example 217, N-{4-[4-amino-7-(3-morpholin-4-ylpropyl)pyrrolo[2,1-f][1,2,4]triazin-5-yl]-2-fluorophenyl}-N′-[2-chloro-5-(trifluoromethyl)phenyl]urea] it was 10 to 100 nM.

Staying with this assay, now noted: upper bound of the bin 'greater than 100 nM but less than 1 μM' (lower bound in E1).
On to `CC(C)(C)OC(=O)N1CCC(c2cc(-c3ccc(NC(=O)Nc4cc(C(F)(F)F)ccc4F)c(F)c3)c3c(N)ncnn23)C1` (centres unmarked) [Example 198, tert-butyl 3-{4-amino-5-[3-fluoro-4-({[2-fluoro-5-(trifluoromethyl)phenyl]carbamoyl}amino)phenyl]pyrrolo[2,1-f][1,2,4]triazin-7-yl}pyrrolidine-1-carboxylate], for which the pIC50 is over 6.00.
